Reference: PMC10247784, “Physiological activation of human and mouse bitter taste receptors by bile acids” (Communications Biology, 2023)
Values joined by “and” are separate entries in the source; they are usually repeats but may differ in a detail not shown here. Equal values may be shown once.

Molecular target: T1, human TAS2R1 (Homo sapiens, UniProt Q9NYW7)
T1 construct: expressed in transfected cells; host or cells: HEK293T-Gα16gust44
T1 sequence (Q9NYW7 1-299): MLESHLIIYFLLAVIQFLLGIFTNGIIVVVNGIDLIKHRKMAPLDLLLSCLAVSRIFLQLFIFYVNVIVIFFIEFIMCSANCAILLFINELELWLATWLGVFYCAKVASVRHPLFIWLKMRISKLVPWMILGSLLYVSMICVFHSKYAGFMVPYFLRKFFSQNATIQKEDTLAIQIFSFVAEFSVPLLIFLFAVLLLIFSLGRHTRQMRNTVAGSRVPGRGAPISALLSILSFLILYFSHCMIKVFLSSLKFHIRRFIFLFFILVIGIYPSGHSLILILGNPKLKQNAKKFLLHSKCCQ
Test: Calcium imaging assay (FLIPR), HEK293T-Gα16gust44 cells transfected with human TAS2R1
Type: cell-based
Procedure, shortened: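 Read-out is Fluo-4 fluorescence change (ΔF/F) after automated application of bile acids (DMSO stocks) to transiently transfected cells. Values are corrected for empty-vector cells and normalized to buffer. Dose-response from three independent experiments in duplicate; threshold concentration set at p < 0.01 versus mock.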

Question: With `C[C@H](CCC(=O)NCCS(=O)(=O)O)[C@H]1CC[C@H]2[C@@H]3CC[C@@H]4C[C@H](O)CC[C@]4(C)[C@H]3CC[C@]12C` [Taurolithocholic Acid, taurolithocholic acid] as the compound, how does the “Efficacy = maximal amplitude (ΔF/F)” value (TAS2R1, bile acids, mean) read?
Answer: 0.1277

Question: What about the “Efficacy (maximal amplitude ΔF/F), individual data points” value (TAS2R1, bile acids, single replicates, listed as TLCA) of the same compound?
Answer: 0.1258 and 0.1227 and 0.1699 and 0.1221 and 0.09796

Question: And the RLU (Time 0 s (second time grid))?
Answer: 0 RLU

Question: What about the RLU (Time 2 s) of the same compound?
Answer: -8.765 RLU

Question: What about the RLU (Time 4 s) of the same compound?
Answer: 34.6882 RLU

Question: And the RLU (Time 6 s)?
Answer: 11.8088 RLU

Question: What about the RLU (Time 8 s) of the same compound?
Answer: 18.099 RLU

Question: And the RLU (Time 12 s)?
Answer: 15.1496 RLU

Question: What about the RLU (Time 14 s) of the same compound?
Answer: 13.1492 RLU

Question: And the RLU (Time 16 s)?
Answer: 0.9458 RLU

Question: And the RLU (Time 18 s)?
Answer: 9.703 RLU

Question: What about the RLU (Time 18.781 s) of the same compound?
Answer: 5.165 RLU

Question: And the RLU (Time 20.781 s)?
Answer: 27.2472 RLU

Question: What about the RLU (Time 22.781 s) of the same compound?
Answer: 1.644 RLU

Question: What about the RLU (Time 24.781 s) of the same compound?
Answer: -21.8293 RLU

Question: What about the RLU (Time 26.781 s) of the same compound?
Answer: 33.0454 RLU

Question: What about the RLU (Time 28.781 s) of the same compound?
Answer: 106.888 RLU

Question: And the RLU (Time 30.781 s)?
Answer: 183.135 RLU

Question: And the RLU (Time 32.781 s)?
Answer: 270.143 RLU

Question: And the RLU (Time 34.781 s)?
Answer: 337.182 RLU

Question: And the RLU (Time 36.781 s)?
Answer: 405.016 RLU

Question: What about the RLU (Time 38.781 s) of the same compound?
Answer: 448.367 RLU

Question: What about the RLU (Time 40.781 s) of the same compound?
Answer: 483.096 RLU

Question: What about the RLU (Time 42.781 s) of the same compound?
Answer: 511.157 RLU

Question: What about the RLU (Time 44.781 s) of the same compound?
Answer: 542.077 RLU

Question: What about the RLU (Time 46.781 s) of the same compound?
Answer: 572.975 RLU

Question: And the RLU (Time 48.781 s)?
Answer: 599.496 RLU

Question: What about the RLU (Time 50.781 s) of the same compound?
Answer: 624.238 RLU

Question: And the RLU (Time 52.781 s)?
Answer: 642.403 RLU

Question: And the RLU (Time 54.781 s)?
Answer: 649.802 RLU

Question: What about the RLU (Time 56.781 s) of the same compound?
Answer: 680.566 RLU

Question: And the RLU (Time 58.781 s)?
Answer: 693.048 RLU

Question: What about the RLU (Time 60.781 s) of the same compound?
Answer: 676.887 RLU

Question: And the RLU (Time 62.781 s)?
Answer: 735.967 RLU

Question: What about the RLU (Time 64.781 s) of the same compound?
Answer: 726.535 RLU

Question: And the RLU (Time 66.781 s)?
Answer: 712 RLU

Question: And the RLU (Time 68.781 s)?
Answer: 708.17 RLU

Question: And the RLU (Time 70.781 s)?
Answer: 740.519 RLU

Question: What about the RLU (Time 72.781 s) of the same compound?
Answer: 720.827 RLU

Question: And the RLU (Time 74.781 s)?
Answer: 715.629 RLU

Question: What about the RLU (Time 76.781 s) of the same compound?
Answer: 740.295 RLU

Question: What about the RLU (Time 78.781 s) of the same compound?
Answer: 736.469 RLU

Question: And the RLU (Time 80.781 s)?
Answer: 705.753 RLU

Question: What about the RLU (Time 82.781 s) of the same compound?
Answer: 719.776 RLU

Question: And the RLU (Time 84.781 s)?
Answer: 729.602 RLU

Question: And the RLU (Time 86.781 s)?
Answer: 717.016 RLU

Question: And the RLU (Time 88.781 s)?
Answer: 708.528 RLU

Question: And the RLU (Time 90.781 s)?
Answer: 685.914 RLU

Question: And the RLU (Time 92.781 s)?
Answer: 709.593 RLU

Question: And the RLU (Time 94.781 s)?
Answer: 708.426 RLU

Question: What about the RLU (Time 96.781 s) of the same compound?
Answer: 665.125 RLU

Question: What about the RLU (Time 98.781 s) of the same compound?
Answer: 639.76 RLU

Question: What about the RLU (Time 100.781 s) of the same compound?
Answer: 661.017 RLU

Question: What about the RLU (Time 102.781 s) of the same compound?
Answer: 653.391 RLU

Question: And the RLU (Time 104.781 s)?
Answer: 622.006 RLU

Question: What about the RLU (Time 106.781 s) of the same compound?
Answer: 616.277 RLU

Question: What about the RLU (Time 108.781 s) of the same compound?
Answer: 602.431 RLU

Question: What about the RLU (Time 110.781 s) of the same compound?
Answer: 574.352 RLU

Question: What about the RLU (Time 112.781 s) of the same compound?
Answer: 593.769 RLU

Question: And the RLU (Time 114.781 s)?
Answer: 553.55 RLU

Question: And the RLU (Time 116.781 s)?
Answer: 583.964 RLU

Question: What about the RLU (Time 118.781 s) of the same compound?
Answer: 539.304 RLU

Question: And the RLU (Time 120.781 s)?
Answer: 524.165 RLU

Question: And the RLU (Time 122.781 s)?
Answer: 518.27 RLU

Question: And the RLU (Time 124.781 s)?
Answer: 503.611 RLU

Question: What about the RLU (Time 126.781 s) of the same compound?
Answer: 474.132 RLU

Question: And the RLU (Time 128.781 s)?
Answer: 435.021 RLU

Question: And the RLU (Time 130.781 s)?
Answer: 439.84 RLU

Question: What about the RLU (Time 132.781 s) of the same compound?
Answer: 420.045 RLU

Question: And the RLU (Time 134.781 s)?
Answer: 393.577 RLU

Question: What about the RLU (Time 136.781 s) of the same compound?
Answer: 395.556 RLU

Question: And the RLU (Time 137.547 s)?
Answer: 402.14 RLU

Question: What about the RLU (Time 143.547 s) of the same compound?
Answer: 371.698 RLU

Question: And the RLU (Time 149.547 s)?
Answer: 331.65 RLU

Question: What about the RLU (Time 155.547 s) of the same compound?
Answer: 280.988 RLU

Question: And the RLU (Time 161.547 s)?
Answer: 237.537 RLU

Question: And the RLU (Time 167.547 s)?
Answer: 191.55 RLU

Question: And the RLU (Time 173.547 s)?
Answer: 185.568 RLU

Question: And the RLU (Time 179.547 s)?
Answer: 137.711 RLU

Question: And the RLU (Time 185.547 s)?
Answer: 105.562 RLU

Question: And the RLU (Time 191.547 s)?
Answer: 24.299 RLU

Question: What about the RLU (Time 197.547 s) of the same compound?
Answer: 1.672 RLU

Question: And the RLU (Time 203.547 s)?
Answer: -7.55 RLU

Question: What about the RLU (Time 209.547 s) of the same compound?
Answer: -39.8614 RLU

Question: What about the RLU (Time 215.547 s) of the same compound?
Answer: -81.387 RLU

Question: What about the RLU (Time 221.547 s) of the same compound?
Answer: -74.4232 RLU

Question: What about the RLU (Time 227.547 s) of the same compound?
Answer: -79.2952 RLU

Question: What about the RLU (Time 233.547 s) of the same compound?
Answer: -69.562 RLU

Question: What about the RLU (Time 239.547 s) of the same compound?
Answer: -81.6561 RLU

Question: And the RLU (Time 245.547 s)?
Answer: -72.3962 RLU

Question: What about the RLU (Time 293.547 s) of the same compound?
Answer: -154.558 RLU

Question: And the RLU (Time 299.547 s)?
Answer: -170.989 RLU

Question: And the RLU (calcium trace, sheet TAS2R1, Time 305.547 s)?
Answer: -184.97 RLU

Question: What about the RLU (calcium trace, sheet TAS2R1, Time 311.547 s) of the same compound?
Answer: -208.123 RLU

Question: What about the RLU (calcium trace, sheet TAS2R1, Time 317.547 s) of the same compound?
Answer: -201.311 RLU

Question: What about the RLU (calcium trace, sheet TAS2R1, Time 323.547 s) of the same compound?
Answer: -236.998 RLU

Question: And the RLU (calcium trace, sheet TAS2R1, Time 329.547 s)?
Answer: -230.646 RLU

Question: What about the RLU (calcium trace, sheet TAS2R1, Time 335.547 s) of the same compound?
Answer: -241.48 RLU

Question: And the RLU (calcium trace, sheet TAS2R1, Time 341.547 s)?
Answer: -222.174 RLU

Question: What about the RLU (calcium trace, sheet TAS2R1, Time 347.547 s) of the same compound?
Answer: -215.316 RLU

Question: What about the RLU (calcium trace, sheet TAS2R1, Time 353.547 s) of the same compound?
Answer: -228.211 RLU

Question: What about the RLU (calcium trace, sheet TAS2R1, Time 359.547 s) of the same compound?
Answer: -233.286 RLU

Question: And the EC50 (calculated where receptor saturation was reached)?
Answer: 1900 nM

Question: What about the “Activation threshold concentration TAS2R1” value (lowest concentration with significantly increased fluorescence vs empty vector (p < 0.01)) of the same compound?
Answer: 0.3 µM and 0.30 µM
